This note sets out measurements from US12054510B2, “2′ and/or 5′ amino-acid ester phosphoramidate 3′-deoxy adenosine derivatives as anti-cancer compounds” (Nucana plc, priority 2014, dated 2024).

Molecules are shown by their SMILES.

One data set relates to HS445. Briefly: Solid tumour and haematological malignancy assay (CellTiterGlo). To be noted: 72 hr. In kind it is cell-based.
The test system of another data set is SW620. The description is as above. In kind it is cell-based. To be noted: for IC50: Homo sapiens, SW-620, 72 h, read-out: IC50 (absolute IC50); for MI %: SW620, 72 hr.
In the next data set the test system is BxPC-3. The description is as above. To be noted: 72 hr. In kind it is cell-based.
The next data set has as its system RPMI-8226. Described as above. It is filed as cell-based, Human. The conditions noted are these: for MI %: RPMI-8226, 72 hr. The protocol:
In vitro viability assay were performed to assess the effects of compounds on cell viability in selected cell lines over 72 hr using the CellTiterGlo (CTG, Promega-G7573) assay. The tests were performed in duplicates with treatment of compounds at 9 points, 3.16 folds titration in 96 well plates over ˜72 hr. The compound starting concentrations were […]. Cell viability assay using CellTiterGlo in 96-well plate were performed. Compound treatment 72 hrs, standard growth conditions, duplicates. Compounds were dissolved to 40 mM with thawed […]. Compounds were serially diluted at 3.16 fold in thawed DMSO, and warmed to 37° C. before being dissolved in media (2 μl+200 μl). After compounds were dissolved in media, media containing compounds were warmed to 37° C. in incubator and then compounds in media were added to cell plates (50 μl+50 μl) in duplicates. The compounds' final concentrations were from 198M to 19.9 nM. All compound solubilities were checked and recorded again, then the plates were transferred to CO2 tissue culture incubator immediately and incubated for 3 days. DMSO final concentration is 0.5%.

The test system of another data set is MCF-7. Briefly: CellTiterGlo cell viability assay, initial screening. It is filed as cell-based. The conditions noted are these: MCF-7; 72 hr; Table II. As to the method: (§1) In vitro viability assays were performed to assess the effects of compounds on cell viability in 7 selected cell lines over 72 hr using the CellTiterGlo (CTG, Promega-G7573) assay. The tests were performed in duplicates with treatment of compounds at 9 points, 3.16 folds titration in 96 well plates over ˜72 hr. The compound starting concentrations were […]. Cell viability assay using CellTiterGlo in 96-well plate were performed. The compound treatment was 72 hrs, under standard growth conditions, and in duplicate. Compounds were dissolved to 40 mM with thawed […]. Compounds were serially diluted at 3.16 fold in thawed DMSO, and warmed to 37° C. before being dissolved in media (2 μl+200 μl). After compounds were dissolved in media (media was also warmed to 37° C.). Media containing compounds were warmed to 37° C. in incubator and then compounds in media were added to cell plates (50 μl+50 μl), in duplicates. The compounds final concentrations were from […] to 19.9 nM. All compound solubilities were checked and recorded again, then the plates were transferred to CO2 tissue culture incubator immediately and incubated for 3 days. DMSO final concentration is 0.5%.
A general note: In ATP-based viability assays light output follows the ATP content of the culture.

A further data set relates to HepG2. The description is as above. In kind it is cell-based. To be noted: for M.I. %: maximum percentage inhibition of cell viability: HepG2, 72 hr, Table II; for IC50: Homo sapiens, HepG2, 72 h, read-out: IC50 (relative IC50). The protocol:
as §1

For data set [1], the system named is K562. The data set is described as above. It is filed as cell-based. The conditions noted are these: 72 hr, Table II. As to the method: as §1
In the next data set the test system is MOLT-4. The data set is described as above. It is filed as cell-based. The conditions noted are these: for M.I. %: maximum percentage inhibition of cell viability: MOLT-4, 72 hr, Table II. As to the method: as §1
The subject of data set [2] is HL-60. The description is as above. It is filed as cell-based. The conditions noted are these: for M.I. %: maximum percentage inhibition of cell viability: HL-60, 72 hr, Table II; for IC50: Homo sapiens, HL-60, 72 h, read-out: IC50 (relative IC50). The protocol:
as §1

The subject of another data set is CCRF-CEM. The data set is described as above. The conditions noted are these: CCRF-CEM; 72 hr; Table II. In kind it is cell-based. The protocol: as §1
A further data set has as its system KG-1. The data set is described as above. In kind it is cell-based. The conditions noted are these: KG-1; 72 hr; Table II. As to the method: as §1
Data set [3] concerns K562. Briefly: ATP ViaLight plus cell viability assay. In kind it is cell-based, Human. To be noted: for (FD) fold difference compared to Cordycepin = Cordycepin IC50/ProTide IC50: K562. As to the method: (§2) Certain compounds of the invention were subjected to further studies to test the cytotoxic activity of certain compounds of the invention and also to measure their activity against 4 haematological cancer cell lines • TdT positive CEM (Human ALL) • TdT negative K562 (Human CML) • TdT negative H1-60 (Human ANLL) • RL (CRL-2261) non-HD lymphoma • The concentrations of the active metabolite dATP (Cordycepin triphosphate) in these cell lines was also measured. • The cytotoxic activity and the intracellular 3′-dATP concentrations were also studied in the presence of hENT1, Adenosine Kinase (AK) and Adenosine Deaminase pharmacological inhibitors in CEM and RL cancer cell lines. Said inhibitors that mimic known cancer resistance mechanisms. Methods Cell Culture
(§3) HL-60, K562, CCRF-CEM and RL cell lines were cultured in RPMI-1640 medium (Sigma Aldrich, UK), which were supplemented with 10% Fetal Bovine Serum (FBS) (PAA Laboratories), 1% amphotericin B (5.5 ml) and 1% penicillin/streptomycin (5.5 ml) (PAA Laboratories) and grown in flasks at 37° C. incubator with 5% CO2.
(§4) The amount of ATP was used as a measurement of cell number and cell viability. ATP ViaLight™ plus assay kit (Lonza, USA: Product No. LT07-121) to detect ATP in cells treated in luminescence compatible 96 well plates (initial concentration of cells was 1×10^4 cells/well) with cordycepin and ProTides at concentrations of: 0, 0.1, 0.5, 1, 5 and 10 μM, followed by incubation for 72 hours at 37° C. incubator with 5% CO2. For inhibitor studies, 10 μM of NBTI or 1 μM EHNA or A-134974 was added and left for 5 minutes before adding the drugs (see section 5 for inhibitor details).
(§5) After incubation, 50 μl of cell lysis reagent was added to the 96 well plates to release the intracellular ATP, followed by 100 μl of ATP monitoring reagent (AMR). The luminescent values of each well were determined using FLUOstar OPTIMA microplate reader (BMG Labtech) which convert ATP into light by using luciferase enzyme. Therefore, the amount of luminescence produced was directly proportional to the amount of ATP.
(§6) The dose-response curves of cytotoxicity of the drugs was determined using non-linear regression analysis of percentage cell viability versus concentration and EC50 values were obtained. The intracellular assay was conducted in five replicates for each condition. Intracellular assay was determined using paired t test (two-tailed) analysis of 3′ ATP/ATP concentration and p-values were obtained. For all the analysis, Prism Software program (GraphPad Software) was used and Microsoft Powerpoint® 2013 was used to plot the results.

The subject of data set [4] is HL-60. Nature of the data set: ATP ViaLight plus cell viability assay. In kind it is cell-based, Human. To be noted: for (FD) fold difference compared to Cordycepin = Cordycepin IC50/ProTide IC50: HL-60. The protocol: as §2, §3, §4, §5, §6

As to `C[C@H](NP(=O)(OC[C@@H]1C[C@@H](O)[C@H](n2cnc3c(N)ncnc32)O1)Oc1cccc2ccccc12)C(=O)OCc1ccccc1` (stereo partly drawn) [B, (2S)-benzyl 2-(((((2S,4R,5R)-5-(6-amino-9H-purin-9-yl)-4-hydroxytetrahydrofuran-2-yl)methoxy)(naphthalen-1-yloxy)phosphoryl)amino)propanoate], the MI % in the data set with HS445 stood at 96%; in the data set with SW620, 93%; in the data set with BxPC-3, 90%; with RPMI-8226 it was 102%. Moreover, the IC50 in the data set on SW620 is 5 to 15 µM; in the data set with MOLT-4 (Homo sapiens, MOLT-4, 72 h, read-out: IC50 (relative IC50)), 0.1 to 5 µM; with HL-60 [2] it was 5 to 15 µM. In addition, the “M.I. %: maximum percentage inhibition of cell viability” value (“M.I. %: maximum percentage inhibition” for short) with MCF-7 was determined as 99%; in the data set with HepG2, 95%; in the data set on K562 [1], 97%; in the data set with MOLT-4 it was 100%; in the data set with HL-60 [2], 100%; in the data set with CCRF-CEM, 100%. Moreover, in the data set with KG-1, the “M.I. %: maximum percentage inhibition” value was 100%. Moreover, the results for the “(FD) fold difference compared to Cordycepin = Cordycepin IC50/ProTide IC50” value with K562 [3] and in the data set on HL-60 [4] were 52 and 4, respectively.

Regarding `COC(=O)C(C)(C)NP(=O)(OC[C@@H]1C[C@@H](O)[C@H](n2cnc3c(N)ncnc32)O1)Oc1cccc2ccccc12` (stereo partly drawn) [E, Methyl 2-(((((2S,4R,5R)-5-(6-amino-9H-purin-9-yl)-4-hydroxytetrahydrofuran-2-yl)-methoxy)(naphthalen-1-yloxy)phosphoryl)amino)-2-methylpropanoate], the MI % in the data set with HS445 amounted to 85%; in the data set on SW620, 74%; with BxPC-3, 71%; with RPMI-8226 it was 89%. The IC50 in the data set on SW620, in the data set with HepG2 and with HL-60 [2] was 15 to 100 µM throughout. The “M.I. %: maximum percentage inhibition” value came out at 78% in the data set on MCF-7; 59% in the data set with HepG2; 81% with K562 [1]; 97% in the data set on MOLT-4; 74% in the data set on HL-60 [2]; 90% in the data set with CCRF-CEM. The “M.I. %: maximum percentage inhibition” value with KG-1 came to 69%. Moreover, the “(FD) fold difference compared to Cordycepin = Cordycepin IC50/ProTide IC50” value in the data set with K562 [3] and in the data set with HL-60 [4] was 1 throughout.

`CCOC(=O)CCc1ccccc1OP(=O)(N[C@@H](C)C(=O)OCc1ccccc1)OC[C@@H]1C[C@@H](O)[C@H](n2cnc3c(N)ncnc32)O1` (stereo partly drawn) [F, (2S)-benzyl 2-(((((2S,4R,5R)-5-(6-amino-9H-purin-9-yl)-4-hydroxytetrahydrofuran-2-yl)methoxy)(2-(3-ethoxy-3-oxopropyl)phenoxy)phosphoryl)amino)propanoate]: the MI % in the data set with HS445 amounted to 92%; with BxPC-3, 78%; in the data set on RPMI-8226, 106%. The IC50 in the data set with SW620 was 15 to 100 µM; in the data set on RPMI-8226 (Homo sapiens, RPMI-8226, 72 h, read-out: IC50 (absolute IC50)) it was 15 to 100 µM; in the data set on HepG2, 15 to 100 µM; in the data set with HL-60 [2], 15 to 100 µM; in the data set with K562 [3] (Homo sapiens, K562, 72 h), 6.3 µM; with HL-60 [4] (Homo sapiens, HL-60, 72 h), 8.3 µM. In addition, the “M.I. %: maximum percentage inhibition” value in the data set with MCF-7 was 99%; with HepG2 it was 84%; in the data set on K562 [1], 91%; with MOLT-4 it was 100%; in the data set with HL-60 [2], 100%; in the data set on CCRF-CEM it was 99%. For the same compound, the “M.I. %: maximum percentage inhibition” value in the data set with KG-1 was determined as 98%. Also, the figures for the “(FD) fold difference compared to Cordycepin = Cordycepin IC50/ProTide IC50” value in the data set with K562 [3] and in the data set on HL-60 [4] were 2 and 1, respectively.

The term IC50 denotes the midpoint of a concentration-inhibition curve.
